Consider one compound from EP4710949A1, “LYOPHILIZED PREPARATION, LYOPHILIZED SOLUTION, METHODS FOR PRODUCING SAME, AND LIQUID AGENT” (Goryo Chemical, Inc., priority 2023, dated 2024).

Data set [1] can be described thus: Dissolution test of Compound A (Test Example 1). The class given is physicochemical. Conditions: 0.03% ps20, pH 7; 0.03 wt% PS20 solution (phosphate buffer). As to the method:
(§1) ·Column: Meteoric Core C8, 5 µm, 4.6 mm×150 mm (YMC Co., Ltd.) ·Column temperature: 25°C ·Feeding amount: 1.0 mL/min. ·Wavelength: 254 nm ·Mobile phase A: water/TFA (1,000:1), Mobile phase B: acetonitrile/TFA (1,000:1) ·Feeding of mobile phase Table 1
1 Milligram of Compound A and 10 mL of a 6.55 mM phosphate buffer (pH: 7) containing 0 wt% to 0.03 wt% of polysorbate 20 (FUJIFILM Wako Pure Chemical Corporation, hereinafter referred to as "PS20") or an aqueous solution of NaH2PO4 (0.33 mg/mL) containing 0 wt% to 0.03 wt% of PS20 were loaded into a glass vial having a volume of 20 mL, and air inside the vial was purged with nitrogen. The vial was loaded into Aluminum Lamizip, and the vial was shaken overnight. The phosphate buffer was prepared by using NaH2PO4 and Na2HPO4. The mixture was filtered with a PVDF filter (Millex-GV, 0.22 µm, PVDF, 4 mm), and the solution after 10 drops of its initial flow was collected. Thus, solutions having formulations 1 to 8 were obtained. The concentrations of Compound A in the resultant solutions were calculated by the HPLC measurement of the solutions.

The nature of data set [2]: Reconstitution of lyophilized preparation of Compound A in physiological saline (Test Example 8). The class given is physicochemical. As to the method: as §1
Physiological saline (physiological salt solution "OTSUKA NORMAL SALINE") was added to a lyophilized preparation produced according to the same formulation as the formulation 32 except the concentration of Compound A in the lyophilization solution, and the preparation was dissolved in the saline so that a liquid amount was 5 mL. Thus, a reconstituted solution (liquid preparation) of Compound A was obtained. The concentration of Compound A in the reconstituted solution was calculated by HPLC measurement, and the content of Compound A was calculated. […]

≈ marks a conversion by molar mass, not a printed value. Where “and” joins values, the source holds several entries; their conditions need not be identical. Equal entries are not always repeated.

`COCC(=O)N[C@@H](CC(C)C)C(=O)N[C@@H](CCSC)C(=O)Nc1ccc2c(c1)Oc1cc(N)ccc1C21OCc2ccccc21` (some centres unmarked) [Compound A] displayed a solubility in data set [1] of 12.4 µg/mL (≈ 19.6 µM). For the same compound, the “measured value of the concentration of Compound A” value in data set [2] (lyophilization solution used in the production of the lyophilized preparation (same formulation as formulation 32 except Compound A concentration)) amounted to 149.2 µg/mL. The “appearance of the reconstituted solution” value in data set [2] (lyophilized preparation dissolved in physiological saline, 5 mL) was “clear and free of visible particles”. Besides, in data set [2] (reconstituted solution, 5 mL physiological saline, lyophilized preparation as formulation 32 except Compound A concentration), the “Final concentration of Compound A” value was 29.9 µg/mL and 47.2 µM. In addition, in data set [2] (reconstituted solution, 5 mL physiological saline, ratio to content in lyophilization solution), the “Content of Compound A (%)” value is 100.1%.
